Key:
[1] = system: Zika virus; assay: Functional CPE-based assay to measure dose dependent changes in antiviral-drug inhibitory efficacy against Zika virus MR766 in Vero E6 miRFP670 cells (cotreated with P-gp inhibitor, CP100356). Cells are treated with antiviral candidates that are serially diluted. EC50 is reported via analysis of MTS assay as a readout of CPE. The assay has been performed by KU Leuven.; type: organism-based, Chlorocebus sabaeus, Vero C1008; conditions: Zika virus
[2] = system: dengue virus type 2; assay: Functional assay to measure dose dependent changes in antiviral-drug inhibitory efficacy against Dengue virus type 2 New Guinea C in Vero E6 miRFP670 cells (cotreated with P-gp inhibitor, CP100356). Cells are treated with antiviral candidates that are serially diluted, following infection, cells are fixed. EC50 is reported via analysis of fluorescence intensity using high-content imager. The …; type: organism-based, Chlorocebus sabaeus, Vero C1008; conditions: Dengue virus; for EC90: P-gp concentration 500 nM, P-gp inhibitor CP100356

Row | SMILES | EC50 ([1]; Vero C1008) | EC50 ([2]; Vero C1008) | other results
1 | FC(F)(F)Oc1cc(Cl)cc2c(Cc3ccc(-c4nnn[nH]4)cc3)c[nH]c12 | 20.6 µM | 11.9 µM | EC90 ([1]; Vero C1008, Baseline response 0 %, Hill slope 5.381, Maximum measured 73.735 %, Maximum response 100 %, Minimum measured 0.486 %, P-gp concentration 500 nM, R squared 0.994, P-gp inhibitor CP100356): > 25 µM; EC90 ([2]; Vero C1008, Baseline response 0 %, Hill slope -33.999, Maximum measured 142.465 %, Maximum response 100 %, Minimum measured 16.781 %, R squared 0.605): > 12.5 µM
2 | O=C(Nc1ccc2c(c1)CNC2)c1cccc2c(C3CNC3)n[nH]c12 | 9.06 µM | > 50 µM | EC90 ([1]; Vero C1008, Baseline response 0 %, EC90 CI (lower) 13.229 uM, EC90 CI (upper) 28.268 uM, Hill slope 2.896, Maximum measured 113.87 %, Maximum response 100 %, Minimum measured -0.433 %, P-gp concentration 500 nM, R squared 0.955, P-gp inhibitor CP100356): 19.3 µM; EC90 ([2]; Vero C1008, Maximum measured 103.764 %, Minimum measured 75.286 %): > 50 µM
3 | O=C(Nc1ccc2c(c1)CNC2)c1cccc2[nH]c(C(F)(F)F)cc12 | 0.857 µM | 11.6 µM | EC90 ([1]; Vero C1008, Baseline response 0 %, EC90 CI (lower) 0.735 uM, EC90 CI (upper) 5.08 uM, Hill slope 2.705, Maximum measured 139.12 %, Maximum response 100 %, Minimum measured 13.658 %, P-gp concentration 500 nM, R squared 0.773, P-gp inhibitor CP100356): 1.93 µM; EC90 ([2]; Vero C1008, Baseline response 0 %, Hill slope -1.333, Maximum measured 97.959 %, Maximum response 100 %, Minimum measured 43.335 %, R squared 0.826): > 12.5 µM
4 | C=CC[C@H]1NCc2cc(NC(=O)c3cc(F)cc4c3CC(=O)N4)ccc21 | 8.05 µM | > 50 µM | EC90 ([1]; Vero C1008): 19.4 µM; EC90 ([2]; Vero C1008, Baseline response 0 %, Hill slope 1.022, Maximum measured 178.628 %, Maximum response 100 %, Minimum measured 80.7 %, R squared 0.039): > 50 µM
5 | O=C(Nc1ccc2c(c1)CNC2)c1cc(Br)cc2c1nc1n2CCCC1 | > 50 µM | > 50 µM | EC90 ([1]; Vero C1008, Maximum measured -3.355 %, Minimum measured -6.068 %, P-gp concentration 500 nM, P-gp inhibitor CP100356): > 50 µM; EC90 ([2]; Vero C1008, Maximum measured 143.517 %, Minimum measured 80.126 %): > 50 µM
6 | NCc1csc2cc(C(=O)Nc3ccc4c(c3)CNC4)ccc12 | > 50 µM | > 50 µM | EC90 ([1]; Vero C1008, Baseline response 0 %, Hill slope 0.999, Maximum measured 5.799 %, Maximum response 100 %, Minimum measured -1.302 %, P-gp concentration 500 nM, R squared 0.306, P-gp inhibitor CP100356): > 50 µM; EC90 ([2]; Vero C1008, Maximum measured 124.572 %, Minimum measured 93.265 %): > 50 µM
7 | Cc1cnccc1-c1cc(NC(=O)c2cc(F)cc3[nH]ncc23)cc2c1CNC2 | > 50 µM | > 25 µM | EC90 ([1]; Vero C1008, Baseline response 0 %, Hill slope 2.277, Maximum measured 10.357 %, Maximum response 100 %, Minimum measured -2.491 %, P-gp concentration 500 nM, R squared 0.469, P-gp inhibitor CP100356): > 50 µM; EC90 ([2]; Vero C1008, Maximum measured 259.167 %, Minimum measured 80.59 %): > 25 µM
8 | O=C(Nc1ccc2c(c1)CNC2)c1cc(Cl)cc2c1cnn2C1CCC1 | 1.26 µM | > 6.25 µM | EC90 ([1]; Vero C1008, Baseline response 0 %, EC90 CI (lower) 1.13 uM, EC90 CI (upper) 4.462 uM, Hill slope 3.792, Maximum measured 124.257 %, Maximum response 100 %, Minimum measured 13.491 %, P-gp concentration 500 nM, R squared 0.856, P-gp inhibitor CP100356): 2.25 µM; EC90 ([2]; Vero C1008, Maximum measured 167.025 %, Minimum measured 94.774 %): > 6.25 µM
9 | O=C(Nc1ccc2c(c1)CNC2)c1cc(F)cc(-c2cn[nH]c2)c1 | > 50 µM | 1.11 µM | EC90 ([1]; Vero C1008, Baseline response 0 %, Hill slope 1.1, Maximum measured 49.9 %, Maximum response 100 %, Minimum measured 5.357 %, P-gp concentration 500 nM, R squared 0.912, P-gp inhibitor CP100356): > 50 µM; EC90 ([2]; Vero C1008, Baseline response 0 %, EC90 CI (lower) 0.042 uM, EC90 CI (upper) 0.221 uM, Hill slope -0.898, Maximum measured 65.167 %, Maximum response 100 %, Minimum measured 5.409 %, R squared 0.901): 12.8 µM

— ChEMBL document CHEMBL5661943, “ASAP - In vitro antiviral effect” (2024)
